Results reported in ChEMBL document CHEMBL1201862, “PubChem BioAssay data set” (2004).
The source made the active and inactive calls.

Experiments:
[1] = target: Large T antigen (Simian virus 40, UniProt P03070); format: functional, Betapolyomavirus macacae;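 note: Confirmatory-stage PubChem screen for compounds that inhibit SV40 T antigen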
[2] = target: Heat shock protein HSP 90-alpha (Homo sapiens, UniProt P07900); format: functional, organism-based
[3] = tested on: H9c2; experiment: cells; format: functional, cell-based; conditions: Rattus norvegicus, H9c2, Myocardium;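 note: confirmatory concentration-response retest of ultra-high-throughput screening hits for modulation of myocardial damage; cell death induced by hydrogen peroxide oxidative stress; compound pretreatment for 60 min then peroxide exposure for 2 h; potency is for protecting the cells against peroxide damage rather than for killing them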
[4] = target: T1, Fatty acid synthase (Homo sapiens, UniProt P49327); experiment: FAS thioesterase domain inhibitors, dose response, biochemical, endpoint fluorescence intensity, uHTS hits (AID 624327); format: functional;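 note: fluorescence from hydrolysis of an O-methyl fluorescein acyl ester substrate by the enzyme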
T1 sequence (P49327 whole entry, the tested form may be a part): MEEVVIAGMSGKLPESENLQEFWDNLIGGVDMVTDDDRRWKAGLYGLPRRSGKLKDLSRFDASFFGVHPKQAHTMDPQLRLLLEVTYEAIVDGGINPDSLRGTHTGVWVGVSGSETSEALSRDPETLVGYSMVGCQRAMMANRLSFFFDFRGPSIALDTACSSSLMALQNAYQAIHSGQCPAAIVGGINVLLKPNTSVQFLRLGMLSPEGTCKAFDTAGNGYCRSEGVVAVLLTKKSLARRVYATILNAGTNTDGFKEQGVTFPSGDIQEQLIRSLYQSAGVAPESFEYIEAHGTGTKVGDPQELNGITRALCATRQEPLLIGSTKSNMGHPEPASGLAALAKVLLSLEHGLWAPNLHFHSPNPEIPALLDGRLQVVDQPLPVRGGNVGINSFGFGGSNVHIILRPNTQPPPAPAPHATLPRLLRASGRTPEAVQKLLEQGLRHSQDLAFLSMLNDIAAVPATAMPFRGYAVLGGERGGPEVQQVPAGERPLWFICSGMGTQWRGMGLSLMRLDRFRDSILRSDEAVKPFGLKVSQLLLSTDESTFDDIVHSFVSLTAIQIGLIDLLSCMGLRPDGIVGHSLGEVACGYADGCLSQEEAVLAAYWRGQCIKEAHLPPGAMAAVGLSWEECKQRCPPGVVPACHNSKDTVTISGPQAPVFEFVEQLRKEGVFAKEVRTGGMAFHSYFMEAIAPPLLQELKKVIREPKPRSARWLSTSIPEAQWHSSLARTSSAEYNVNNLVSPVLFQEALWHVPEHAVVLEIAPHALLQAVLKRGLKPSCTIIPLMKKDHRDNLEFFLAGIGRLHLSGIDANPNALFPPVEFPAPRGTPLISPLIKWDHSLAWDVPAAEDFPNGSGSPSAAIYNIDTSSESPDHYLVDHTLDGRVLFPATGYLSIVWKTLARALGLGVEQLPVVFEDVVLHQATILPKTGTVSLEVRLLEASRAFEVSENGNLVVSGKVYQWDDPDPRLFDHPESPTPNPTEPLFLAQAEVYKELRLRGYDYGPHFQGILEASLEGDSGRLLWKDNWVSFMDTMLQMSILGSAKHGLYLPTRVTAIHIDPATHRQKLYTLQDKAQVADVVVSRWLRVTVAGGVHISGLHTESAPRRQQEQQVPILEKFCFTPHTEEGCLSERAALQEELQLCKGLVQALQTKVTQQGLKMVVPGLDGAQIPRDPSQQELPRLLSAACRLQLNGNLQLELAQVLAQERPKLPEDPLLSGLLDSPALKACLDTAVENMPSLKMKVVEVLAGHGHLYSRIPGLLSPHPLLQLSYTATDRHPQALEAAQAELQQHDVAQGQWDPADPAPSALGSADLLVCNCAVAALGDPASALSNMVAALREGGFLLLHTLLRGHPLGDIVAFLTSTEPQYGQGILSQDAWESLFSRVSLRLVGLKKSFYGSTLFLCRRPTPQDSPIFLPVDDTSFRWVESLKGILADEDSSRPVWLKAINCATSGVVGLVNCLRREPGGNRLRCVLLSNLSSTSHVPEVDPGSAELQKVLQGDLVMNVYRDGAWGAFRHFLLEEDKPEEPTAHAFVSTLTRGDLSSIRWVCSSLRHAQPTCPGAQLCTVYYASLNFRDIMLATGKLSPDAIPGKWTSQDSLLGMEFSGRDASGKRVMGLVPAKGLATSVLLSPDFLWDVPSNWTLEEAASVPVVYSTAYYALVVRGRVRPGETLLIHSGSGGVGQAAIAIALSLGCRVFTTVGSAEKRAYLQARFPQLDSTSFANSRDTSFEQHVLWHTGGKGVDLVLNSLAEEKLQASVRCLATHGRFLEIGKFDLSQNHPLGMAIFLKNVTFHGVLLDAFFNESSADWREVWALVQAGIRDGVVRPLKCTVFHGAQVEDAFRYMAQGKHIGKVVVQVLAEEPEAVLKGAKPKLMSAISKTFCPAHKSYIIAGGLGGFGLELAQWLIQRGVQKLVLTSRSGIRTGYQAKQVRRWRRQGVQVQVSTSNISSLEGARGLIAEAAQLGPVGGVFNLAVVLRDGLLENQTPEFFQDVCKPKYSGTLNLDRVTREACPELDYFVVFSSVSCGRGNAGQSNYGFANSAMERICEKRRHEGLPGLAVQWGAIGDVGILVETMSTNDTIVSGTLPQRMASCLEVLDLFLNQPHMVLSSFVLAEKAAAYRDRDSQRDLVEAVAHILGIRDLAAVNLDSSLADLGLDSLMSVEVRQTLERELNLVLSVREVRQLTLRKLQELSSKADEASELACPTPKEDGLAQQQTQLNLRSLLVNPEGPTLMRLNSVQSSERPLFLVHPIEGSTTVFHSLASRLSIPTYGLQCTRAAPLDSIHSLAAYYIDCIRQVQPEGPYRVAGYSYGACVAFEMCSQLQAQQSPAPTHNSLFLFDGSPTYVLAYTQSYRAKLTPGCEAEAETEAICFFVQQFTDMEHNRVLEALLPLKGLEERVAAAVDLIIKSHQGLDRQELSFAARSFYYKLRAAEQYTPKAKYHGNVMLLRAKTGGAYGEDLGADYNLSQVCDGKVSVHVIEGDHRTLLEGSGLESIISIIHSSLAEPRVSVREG

[5] = target: T1, Fatty acid synthase; experiment: FAS thioesterase domain inhibitors, dose response, biochemical, kinetic fluorescence intensity (AID 624326); format: functional;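 note: rate of fluorescence rise from hydrolysis of a fluorogenic O-methyl fluorescein ester substrate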
[6] = target: Cytochrome P450 3A4 (Homo sapiens, UniProt P08684); conditions: Potency;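 note: confirmatory qHTS run detecting inhibitors and substrates of CYP3A4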
Chain of Cytochrome P450 3A4 (P08684 whole entry): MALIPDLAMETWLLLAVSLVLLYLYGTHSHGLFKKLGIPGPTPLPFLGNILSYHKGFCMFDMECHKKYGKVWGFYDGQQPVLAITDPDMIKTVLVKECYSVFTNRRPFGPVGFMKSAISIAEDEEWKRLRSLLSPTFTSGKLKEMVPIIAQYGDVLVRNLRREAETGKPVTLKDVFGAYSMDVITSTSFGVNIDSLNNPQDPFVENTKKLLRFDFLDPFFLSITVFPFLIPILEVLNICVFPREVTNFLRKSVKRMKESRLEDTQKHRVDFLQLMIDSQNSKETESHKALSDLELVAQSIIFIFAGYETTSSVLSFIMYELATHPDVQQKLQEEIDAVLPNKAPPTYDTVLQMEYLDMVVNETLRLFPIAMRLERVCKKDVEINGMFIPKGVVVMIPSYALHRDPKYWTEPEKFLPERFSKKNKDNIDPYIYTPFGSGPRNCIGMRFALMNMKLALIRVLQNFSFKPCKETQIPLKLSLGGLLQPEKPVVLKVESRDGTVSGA

[7] = C. albicans growth with fluconazole, confirmation, fluorescence, retest (AID 2467); format: functional, cell-based
[8] = target: T2, Rac GTPase-activating protein 1 (Homo sapiens, UniProt Q9H0H5); experiment: MgcRacGAP GTPase-activating activity inhibitors, confirmation, biochemical, ADP Hunter fluorescence, primary and confirmatory (AID 624330); format: functional
T2 sequence (Q9H0H5 whole entry): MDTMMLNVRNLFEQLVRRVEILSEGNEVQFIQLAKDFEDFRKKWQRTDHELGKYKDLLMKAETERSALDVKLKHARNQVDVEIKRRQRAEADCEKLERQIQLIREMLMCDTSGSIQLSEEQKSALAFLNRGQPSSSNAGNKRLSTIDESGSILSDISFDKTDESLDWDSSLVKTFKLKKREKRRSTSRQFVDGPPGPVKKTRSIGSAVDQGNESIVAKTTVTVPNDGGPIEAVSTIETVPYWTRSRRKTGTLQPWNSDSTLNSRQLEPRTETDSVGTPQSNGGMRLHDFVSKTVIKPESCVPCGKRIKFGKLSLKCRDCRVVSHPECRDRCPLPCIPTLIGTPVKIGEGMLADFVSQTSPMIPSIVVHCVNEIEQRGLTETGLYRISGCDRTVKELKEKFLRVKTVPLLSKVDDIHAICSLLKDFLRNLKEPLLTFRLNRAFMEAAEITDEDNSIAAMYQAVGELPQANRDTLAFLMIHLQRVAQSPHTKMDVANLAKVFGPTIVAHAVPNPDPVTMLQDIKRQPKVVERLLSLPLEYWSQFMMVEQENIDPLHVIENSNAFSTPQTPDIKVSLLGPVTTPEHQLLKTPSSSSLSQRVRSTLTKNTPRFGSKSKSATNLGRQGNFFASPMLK

[9] = NIH-3T3 fibroblast cytotoxicity, dose response, cytotoxicity control, cell-based, fluorescence, Alamar Blue, secondary assay (AID 2327); format: functional;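 note: NIH-3T3 mouse fibroblasts cultured with fluconazole at 8 µg/mL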
[10] = tested on: BJ; experiment: cytotoxicity toward BJ-TERT fibroblasts, dose response, cell-based, RAS-independent, luminescence (AID 1933); format: functional; conditions: Homo sapiens
[11] = tested on: INS1; experiment: beta cell apoptosis inhibitors, cytokine rescue, dose response, luminescence, retest (AID 449756); format: functional, cell-based; conditions: Rattus norvegicus;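 note: cell death triggered by IL-1 beta plus TNF-alpha plus IFN-gamma mixture; protective hits raise ATP signal compared with cytokine alone wells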
[12] = tested on: BJ; experiment: cytotoxicity toward BJ-TERT-LT-ST fibroblasts, dose response, cell-based, RAS-independent, luminescence (AID 1935); format: functional; conditions: Homo sapiens;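 note: BJ fibroblasts immortalized with TERT plus LT and ST oncogenes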
[13] = tested on: BJ; experiment: cells; format: functional, cell-based; conditions: Homo sapiens
[14] = cytotoxicity toward DRD oncogenic fibroblasts, dose response, cell-based, non-viral oncogenic, luminescence (AID 1934); format: functional; conditions: Homo sapiens
[15] = inhibitors of SNCA 5'UTR-driven reporter translation, confirmation, H4 neuroglioma cells, luminescence (AID 1988); format: functional, cell-based
[16] = inhibitors of firefly luciferase expression or activity, dose response, H4 neuroglioma cells, luminescence (AID 1990); format: functional, cell-based
[17] = Luminescence Cell-Based Dose Response HTS to Identify Inhibitors of 5'UTR Stem-Loop Driven Prion Protein mRNA Translation in H4 Neuroglioblastoma Cells. [Related pubchem assays: 1827 (Project Summary), 1813 (Primary HTS)]; format: functional
[18] = microbe, parasite or virus in culture; format: functional; conditions: Mycobacterium tuberculosis
[19] = target: T3, Corticotropin-releasing factor receptor 2/Corticotropin-releasing factor-binding protein (Homo sapiens, UniProt P24387+Q13324); experiment: activators of CRF receptor 2 with binding protein – uHTS hits, confirmation (AID 602473); format: functional; conditions: read-out: EC50_Mean
T3 sequence (Q13324 whole entry): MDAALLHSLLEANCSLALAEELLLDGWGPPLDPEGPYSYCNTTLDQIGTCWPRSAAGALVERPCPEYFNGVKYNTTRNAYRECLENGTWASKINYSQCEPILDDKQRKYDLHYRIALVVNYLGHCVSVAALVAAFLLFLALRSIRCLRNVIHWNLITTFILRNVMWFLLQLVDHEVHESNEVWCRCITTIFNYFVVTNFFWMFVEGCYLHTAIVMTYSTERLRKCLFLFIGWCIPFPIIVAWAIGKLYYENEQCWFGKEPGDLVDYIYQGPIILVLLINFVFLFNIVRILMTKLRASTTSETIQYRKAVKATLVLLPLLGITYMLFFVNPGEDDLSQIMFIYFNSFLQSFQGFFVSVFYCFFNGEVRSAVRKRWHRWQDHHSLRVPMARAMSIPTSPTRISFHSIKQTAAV
T3 sequence (P24387 whole entry): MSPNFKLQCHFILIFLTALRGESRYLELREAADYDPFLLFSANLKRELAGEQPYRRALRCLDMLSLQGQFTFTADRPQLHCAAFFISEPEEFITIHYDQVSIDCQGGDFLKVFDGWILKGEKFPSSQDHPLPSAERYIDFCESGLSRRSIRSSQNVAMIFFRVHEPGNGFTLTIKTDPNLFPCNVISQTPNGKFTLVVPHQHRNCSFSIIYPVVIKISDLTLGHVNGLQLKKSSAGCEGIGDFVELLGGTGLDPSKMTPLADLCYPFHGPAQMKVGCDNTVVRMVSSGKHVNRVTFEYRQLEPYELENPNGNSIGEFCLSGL

[20] = target: T3, Corticotropin-releasing factor receptor 2/Corticotropin-releasing factor-binding protein; experiment: Dose Response confirmation of uHTS hits for small molecule antagonists of the CRF-binding protein and CRF-R2 receptor complex.; format: functional; conditions: read-out: IC50_Mean
[21] = target: T4, Streptokinase A (Streptococcus pyogenes serotype M1, UniProt P10520); experiment: S. pyogenes streptokinase expression inhibitors, potency, dose response, plasminogen activation absorbance, OD405 (AID 1914); format: functional, Streptococcus pyogenes M1 GAS;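 note: secreted streptokinase activity via plasminogen activation per viability signal from cell pellet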
T4 sequence (P10520 whole entry): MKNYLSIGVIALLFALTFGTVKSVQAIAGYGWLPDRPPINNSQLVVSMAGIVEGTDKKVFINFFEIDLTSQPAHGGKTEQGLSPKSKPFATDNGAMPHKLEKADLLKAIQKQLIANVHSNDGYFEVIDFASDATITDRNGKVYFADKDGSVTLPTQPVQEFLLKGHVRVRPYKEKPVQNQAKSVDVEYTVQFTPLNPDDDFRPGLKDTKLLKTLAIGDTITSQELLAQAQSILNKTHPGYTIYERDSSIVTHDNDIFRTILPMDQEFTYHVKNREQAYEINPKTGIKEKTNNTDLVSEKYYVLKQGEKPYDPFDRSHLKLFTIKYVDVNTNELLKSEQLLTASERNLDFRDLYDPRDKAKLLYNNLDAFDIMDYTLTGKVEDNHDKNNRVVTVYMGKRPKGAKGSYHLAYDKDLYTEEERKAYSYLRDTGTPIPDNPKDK

[22] = tested on: Streptococcus; experiment: Group A Streptococcus viability loss, dose response, counter-screen for streptokinase expression inhibitor project, luminescence, BacTiterGlo (AID 1915); format: functional, organism-based;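 note: potency for reduction of bacterial viability or growth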
[23] = tested on: Streptococcus sp. 'group A'; experiment: growth inhibition of control SK(-) GAS strain, dose response, counter-screen for streptokinase expression inhibitor project, luminescence, kanamycin, BacTiterGlo, confirmation (AID 1900); format: functional, organism-based

Chain of Large T antigen (P03070 whole entry): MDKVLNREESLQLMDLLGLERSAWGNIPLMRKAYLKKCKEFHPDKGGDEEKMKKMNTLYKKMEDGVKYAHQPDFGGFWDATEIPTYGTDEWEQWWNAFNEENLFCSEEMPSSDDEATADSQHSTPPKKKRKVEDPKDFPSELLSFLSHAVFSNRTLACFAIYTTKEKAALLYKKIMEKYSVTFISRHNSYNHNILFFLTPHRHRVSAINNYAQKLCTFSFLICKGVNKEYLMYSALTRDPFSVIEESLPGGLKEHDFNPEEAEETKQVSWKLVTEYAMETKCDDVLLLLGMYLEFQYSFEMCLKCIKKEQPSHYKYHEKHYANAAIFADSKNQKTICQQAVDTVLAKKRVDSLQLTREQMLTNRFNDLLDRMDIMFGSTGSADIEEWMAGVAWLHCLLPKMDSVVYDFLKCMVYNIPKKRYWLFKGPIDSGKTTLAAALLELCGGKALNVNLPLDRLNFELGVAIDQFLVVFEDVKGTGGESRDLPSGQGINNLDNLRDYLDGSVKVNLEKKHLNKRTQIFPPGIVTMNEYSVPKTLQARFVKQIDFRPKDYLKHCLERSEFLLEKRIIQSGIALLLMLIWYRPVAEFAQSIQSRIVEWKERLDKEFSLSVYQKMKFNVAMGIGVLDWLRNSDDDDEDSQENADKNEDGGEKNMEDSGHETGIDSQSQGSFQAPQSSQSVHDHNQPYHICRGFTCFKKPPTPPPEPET

SMILES: CCc1cc(C(=O)N/N=C/c2ccc(O)cc2)c2ccccc2n1
- IC50 [1]: > 100 µM (active)

SMILES: N#CSCC(=O)c1cccc2ccccc12
- IC50 [1]: 20.6 µM (active)
- AC50 [2]: 1.61 µM (active)

SMILES: CCN(CC)C(=O)c1ccc2c3c(cccc13)C(=O)N(CCc1ccc(OC)c(OC)c1)C2=O
- IC50 [3]: > 79 µM (inactive)

SMILES: COc1ccc(NC(=O)C(OC(=O)c2ccc([N+](=O)[O-])o2)c2ccccc2)cc1Cl (stereo unspecified)
- IC50 [3]: > 79 µM (inactive)

SMILES: COc1ccc(Cl)cc1NC(=O)CN(C)C(=O)Cn1[nH]c(=O)c2ccccc2c1=O
- IC50 [3]: 20.7 µM (active)

SMILES: CC(NC(=O)c1ccc([N+](=O)[O-])cc1Cl)C1CC2CCC1C2 (stereo unspecified)
- IC50 [4]: 9.39 µM (active)
- IC50 [5]: 11.1 µM (active)

SMILES: COc1ccc(C2/C=C\CN(S(=O)(=O)c3cccc4cccnc34)CC(=O)N2Cc2ccc(F)cc2)cc1 (stereo unspecified)
- IC50 [3]: > 79 µM (inactive)

SMILES: COc1cc(O)c(C(=O)/C=C/c2ccccc2)c(OC)c1 [FLAVOKAWAIN B]
- AC50 [6]: 15.8 µM (inconclusive)

SMILES: CCCCCCCC#Cc1ccccc1/C=N/[S+]([O-])C(C)(C)C (stereo unspecified)
- AC50 [6]: 3.16 µM (inconclusive)

SMILES: O=C(NCc1ccc(C(F)(F)F)cc1)C1CC(c2c(Cl)cccc2Cl)=NO1 (stereo unspecified)
- IC50 [4]: 10.3 µM (active)
- IC50 [5]: 9.63 µM (active)

SMILES: O=C(Nc1ccc(C(F)(F)F)cc1)c1cccc(-n2cnnn2)c1
- IC50 [4]: 11.1 µM (active)
- IC50 [5]: 5.97 µM (active)

SMILES: Oc1ccc(Nc2nc(NCC3CCCO3)c3ccccc3n2)cc1 (stereo unspecified)
- IC50 [1]: 9.48 µM (active)

SMILES: COc1ccc([N+](=O)[O-])cc1NC(=O)COC(=O)/C=C/c1ccco1
- IC50 [4]: 5.11 µM (active)
- IC50 [5]: 8.49 µM (active)

SMILES: CCOC(=O)c1[nH]c2ccc(C)cc2c1N
- EC50 [7]: > 38 µM (not active)
- IC50 [8]: 24.1 µM (active)
- EC50 [9]: > 160 µM (inconclusive)

SMILES: COc1ccc(OC)c(C(=O)COC(=O)c2ccc([N+](=O)[O-])o2)c1
- IC50 [3]: > 79 µM (inactive)

SMILES: Cc1nc(OCc2ccccc2)c2ccccc2n1
- IC50 [3]: > 79 µM (inactive)

SMILES: O=C(C1CC1)N1CCN(c2ccc(O)cc2)CC1
- IC50 [1]: 11.5 µM (active)

SMILES: CC(=O)Oc1cc2c(c(C)c1OC(C)=O)CC=C1[C@]3(C)CC[C@]4(C)CC[C@@](C)(C(=O)O)CC4[C@]3(C)CC[C@]12C (stereo partly specified)
- AC50 [6]: 31.6 µM (inconclusive)

SMILES: CCOC(=O)c1cc2c(=O)n3ccccc3nc2n(Cc2ccco2)/c1=N/C(=O)c1cccnc1
- IC50 [3]: 24.3 µM (active)

SMILES: CCCn1c(-c2ccc(F)cc2)nc2c(NC(C)CN(C)C)nc(C)nc21 (stereo unspecified)
- AC50 [6]: 20 µM (inconclusive)

SMILES: CCn1cc(/C=C/c2cc[n+](C)cc2)c2ccccc21
- EC50 [10]: 23.8 µM (active)
- AC50 [11]: 4.58 µM (active)
- EC50 [12]: > 150 µM (not active)
- EC50 [7]: 0.946 µM (active)
- EC50 [13]: > 150 µM (not active)
- EC50 [14]: > 150 µM (not active)
- EC50 [9]: > 150 µM (inconclusive)

SMILES: Clc1nccc2c1ccc1ccccc12
- AC50 [6]: 12.6 µM (inconclusive)

SMILES: COc1ccc(-c2nn(-c3ccccc3)cc2/C=N/NC(=S)NC(C)C)cc1OC
- EC50 [15]: 48.4 µM (active)
- EC50 [7]: > 38 µM (not active)
- EC50 [16]: 20.2 µM (active)
- EC50 [17]: > 120 µM (not active)
- EC50 [9]: 22.9 µM (active)

SMILES: COc1ccc(OCC(=O)Nc2c(C(=O)N(CCN(C)C)Cc3ccco3)oc3ccccc23)cc1
- EC50 [7]: > 38 µM (not active)
- CC50 [18]: > 40 µM (active)
- EC50 [9]: > 160 µM (inactive)

SMILES: O=C(NCCCc1ccccc1)c1cccc([N+](=O)[O-])c1
- EC50 [19]: > 53 µM (inactive)
- IC50 [4]: 5.56 µM (active)
- IC50 [5]: 4.33 µM (active)
- IC50 [20]: > 47.1 µM (inactive)

SMILES: CCN1C[C@@]2(COC)C3[C@@H](OC)C4[C@@H]1[C@@]3(C1C[C@@]3(O)[C@H](OC(=O)c5ccccc5)C1[C@]4(OC(C)=O)[C@@H](O)[C@@H]3OC)[C@@H](OC)C[C@H]2O (stereo partly specified)
- AC50 [6]: 31.6 µM (inconclusive)

SMILES: CCOc1cc(/C=N/Nc2nc(C)cc(O)n2)ccc1O
- IC50 [1]: 24.9 µM (active)

SMILES: O=C(Cn1cc([N+](=O)[O-])cn1)N1CCc2ccccc2C1
- IC50 [4]: 11.1 µM (active)
- IC50 [5]: 7.62 µM (active)

SMILES: Oc1nc(CN2CCCC2)nc2sc3c(c12)CCC3
- IC50 [3]: > 79 µM (inactive)

SMILES: O=S(=O)(Nc1ccc2c(c1)OCCO2)c1ccc2oc3ccccc3c2c1
- IC50 [4]: 8 µM (active)
- IC50 [5]: 7.42 µM (active)

SMILES: COc1cc(O)cc(/C=C/c2ccccc2)c1 [PINOSYLVIN METHYL ETHER]
- AC50 [6]: 31.6 µM (inconclusive)

SMILES: NC(=O)c1c(NC(=O)Cn2nc(C(=O)O)c3ccccc3c2=O)sc2c1CCC2
- IC50 [3]: > 79 µM (inactive)

SMILES: Cc1ccc(/C=N/NC(=O)C2=NNC(c3ccccc3)(c3ccccc3)C2)c(O)c1
- EC50 [21]: > 150 µM (not active)
- EC50 [22]: > 150 µM (not active)
- EC50 [7]: 2.3 µM (active)
- EC50 [23]: 2.9 µM (active)
- EC50 [9]: 8.56 µM (active)
